Assay results taken from ChEMBL document CHEMBL1201862, “PubChem BioAssay data set” (2004).
Activity calls are given as the source filed them.

Key:
Cytochrome P450 2C19 = Cytochrome P450 2C19 (Homo sapiens, UniProt P33261); assay: Cytochrome panel assay with activity outcomes. Panel member name: p450-cyp2c19 Compounds with AC50 equal or less than 10 uM are considered active; type: functional
[1] = Luminescence Cell-Based Dose Retest to Confirm Inhibitors of Cancer Stem Cells. [Related pubchem assays (depositor defined):AID2717, AID2721]; type: functional; conditions: Homo sapiens
[2] = target: T1, Rac GTPase-activating protein 1 (Homo sapiens, UniProt Q9H0H5); assay: blockers of MgcRacGAP-driven Rac1 GTP hydrolysis – biochemical, ADP Hunter fluorescence, primary and confirmatory, confirmation (AID 624330); type: functional
T1 sequence (Q9H0H5 whole entry): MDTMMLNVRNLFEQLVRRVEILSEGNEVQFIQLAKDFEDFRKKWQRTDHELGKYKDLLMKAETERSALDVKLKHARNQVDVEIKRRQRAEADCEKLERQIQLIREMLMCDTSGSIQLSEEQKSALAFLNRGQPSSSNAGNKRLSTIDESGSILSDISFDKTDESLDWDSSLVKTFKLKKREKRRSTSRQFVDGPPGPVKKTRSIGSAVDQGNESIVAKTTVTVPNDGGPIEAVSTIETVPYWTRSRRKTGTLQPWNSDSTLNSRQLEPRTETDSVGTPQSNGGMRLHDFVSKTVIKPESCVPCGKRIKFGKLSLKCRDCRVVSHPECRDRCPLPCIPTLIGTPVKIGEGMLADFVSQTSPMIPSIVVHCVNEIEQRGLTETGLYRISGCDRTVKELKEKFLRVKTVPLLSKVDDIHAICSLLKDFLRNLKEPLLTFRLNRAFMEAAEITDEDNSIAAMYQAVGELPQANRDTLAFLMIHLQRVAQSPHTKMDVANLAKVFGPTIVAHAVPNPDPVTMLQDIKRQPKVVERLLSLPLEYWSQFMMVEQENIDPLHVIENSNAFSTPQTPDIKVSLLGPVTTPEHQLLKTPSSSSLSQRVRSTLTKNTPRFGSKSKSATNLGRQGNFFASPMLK

[3] = Trypanosoma cruzi growth suppression in host cells – NIH3T3 host cells, beta-gal luminescence, confirmation (AID 2044); type: functional, cell-based;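 further: intracellular parasites grown in NIH/3T3 mouse fibroblasts as host cells; luminescent beta-galactosidase reporter signal from transgenic T. cruzi replicating inside host cells; inhibitors lower the luminescence signal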
[4] = NIH3T3 cell viability loss – ATP luminescence, mouse fibroblasts, counter-screen, dose response (AID 2010); type: functional, cell-based;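 further: cells exposed to compound for about 90 hours before reading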
[5] = viability of uninfected HEp-2 cells – cell-based, HTS, cytotoxicity control for RSV inhibitor project, dose response (AID 2410); type: functional; conditions: human respiratory syncytial virus
Cytochrome P450 1A2 = target: T2, Cytochrome P450 1A2 (Homo sapiens, UniProt P05177);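 further: PubChem cytochrome P450 panel assay, CYP1A2 panel member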
T2 sequence (P05177 whole entry): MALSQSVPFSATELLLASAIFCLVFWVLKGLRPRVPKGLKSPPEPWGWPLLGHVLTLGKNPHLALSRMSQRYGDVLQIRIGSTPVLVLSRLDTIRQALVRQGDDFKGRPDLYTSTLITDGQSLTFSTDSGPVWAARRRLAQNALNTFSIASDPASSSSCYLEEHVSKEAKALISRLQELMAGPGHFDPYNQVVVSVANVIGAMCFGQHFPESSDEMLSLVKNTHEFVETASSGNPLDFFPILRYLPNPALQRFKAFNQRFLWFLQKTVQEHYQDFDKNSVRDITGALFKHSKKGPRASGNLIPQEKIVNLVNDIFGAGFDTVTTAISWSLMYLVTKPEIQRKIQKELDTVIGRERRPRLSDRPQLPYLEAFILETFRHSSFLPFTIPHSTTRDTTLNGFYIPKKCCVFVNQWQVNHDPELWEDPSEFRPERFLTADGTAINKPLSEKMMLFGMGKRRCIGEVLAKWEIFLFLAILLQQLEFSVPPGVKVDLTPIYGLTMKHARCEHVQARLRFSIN

Cytochrome P450 3A4 = Cytochrome P450 3A4 (Homo sapiens, UniProt P08684);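 further: CYP3A4 tested as one member of a cytochrome P450 panel screen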
[6] = test system: Streptococcus sp. 'group A'; assay: Streptococcus pyogenes SK(-)GAS viability under kanamycin – luminescence, BacTiterGlo, confirmation, counter-screen for streptokinase expression inhibitor project, dose response (AID 1900); type: functional, organism-based
Streptococcus = assay: GAS UMAA2166 growth inhibition – luminescence, BacTiterGlo, counter-screen for streptokinase expression inhibitor project, dose response (AID 1915); type: functional, organism-based;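 further: potency for reduction of bacterial viability or growth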
[7] = Luminescence Cell-Based Dose Confirmation HTS to Identify Activators of 5'UTR Stem-Loop Driven Alpha-Synuclein mRNA Translation in H4 Neuroglioblastoma Cells. [Related pubchem assays: 1829 (Project Summary), 1814 (Primary HTS)]; type: functional
[8] = Luminescence Cell-Based Dose Response HTS to Identify Activators of Luciferase Translation or Activity in H4 […] Cells. [Related pubchem assays: 1829 (Project Summary), 1814 (Primary HTS)]; type: functional
H4 = assay: Luminescence Cell-Based Dose Response HTS to Identify Activators of 5'UTR Stem-Loop Driven Prion Protein mRNA Translation in H4 Neuroglioblastoma Cells. [Related pubchem assays: 1829 (Project Summary), 1814 (Primary HTS)]; type: functional; conditions: Homo sapiens
[9] = target: T3, Corticotropin-releasing factor receptor 2/Corticotropin-releasing factor-binding protein (Homo sapiens, UniProt P24387+Q13324); assay: activators of CRF receptor 2 with binding protein – uHTS hits, confirmation (AID 602473); type: functional; conditions: read-out: EC50_Mean
T3 sequence (Q13324 whole entry): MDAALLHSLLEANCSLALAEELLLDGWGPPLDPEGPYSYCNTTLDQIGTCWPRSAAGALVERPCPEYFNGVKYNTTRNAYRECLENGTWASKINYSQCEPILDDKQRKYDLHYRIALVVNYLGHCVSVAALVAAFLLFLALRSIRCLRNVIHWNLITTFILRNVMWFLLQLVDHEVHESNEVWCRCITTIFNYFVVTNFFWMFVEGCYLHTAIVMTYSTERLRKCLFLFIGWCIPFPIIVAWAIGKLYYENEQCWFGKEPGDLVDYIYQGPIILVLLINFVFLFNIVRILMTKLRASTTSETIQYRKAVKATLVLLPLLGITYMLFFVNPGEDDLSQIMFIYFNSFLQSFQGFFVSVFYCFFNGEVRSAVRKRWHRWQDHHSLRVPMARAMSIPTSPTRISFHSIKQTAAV
T3 sequence (P24387 whole entry): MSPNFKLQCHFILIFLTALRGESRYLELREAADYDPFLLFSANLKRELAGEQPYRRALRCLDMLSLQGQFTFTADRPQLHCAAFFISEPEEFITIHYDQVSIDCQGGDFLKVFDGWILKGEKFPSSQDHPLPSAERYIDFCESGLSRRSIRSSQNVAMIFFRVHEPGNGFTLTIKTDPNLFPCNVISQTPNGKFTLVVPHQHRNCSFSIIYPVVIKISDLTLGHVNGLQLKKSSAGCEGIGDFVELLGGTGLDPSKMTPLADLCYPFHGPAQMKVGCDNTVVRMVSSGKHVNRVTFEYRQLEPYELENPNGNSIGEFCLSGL

Chain of Cytochrome P450 2C19 (P33261 whole entry): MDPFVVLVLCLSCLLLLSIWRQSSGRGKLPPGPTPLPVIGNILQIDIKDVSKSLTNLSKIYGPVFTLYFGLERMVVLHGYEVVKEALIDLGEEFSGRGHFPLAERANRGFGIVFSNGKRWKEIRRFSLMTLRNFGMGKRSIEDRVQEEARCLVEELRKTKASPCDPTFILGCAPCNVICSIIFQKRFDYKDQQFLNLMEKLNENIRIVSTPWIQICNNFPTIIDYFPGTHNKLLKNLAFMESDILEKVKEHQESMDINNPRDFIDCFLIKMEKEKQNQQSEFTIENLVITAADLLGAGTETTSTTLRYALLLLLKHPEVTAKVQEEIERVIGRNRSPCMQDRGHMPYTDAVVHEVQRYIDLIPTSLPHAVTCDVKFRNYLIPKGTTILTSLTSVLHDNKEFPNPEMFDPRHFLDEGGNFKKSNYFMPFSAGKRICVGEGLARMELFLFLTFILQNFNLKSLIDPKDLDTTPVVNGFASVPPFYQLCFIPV
Chain of Cytochrome P450 3A4 (P08684 whole entry): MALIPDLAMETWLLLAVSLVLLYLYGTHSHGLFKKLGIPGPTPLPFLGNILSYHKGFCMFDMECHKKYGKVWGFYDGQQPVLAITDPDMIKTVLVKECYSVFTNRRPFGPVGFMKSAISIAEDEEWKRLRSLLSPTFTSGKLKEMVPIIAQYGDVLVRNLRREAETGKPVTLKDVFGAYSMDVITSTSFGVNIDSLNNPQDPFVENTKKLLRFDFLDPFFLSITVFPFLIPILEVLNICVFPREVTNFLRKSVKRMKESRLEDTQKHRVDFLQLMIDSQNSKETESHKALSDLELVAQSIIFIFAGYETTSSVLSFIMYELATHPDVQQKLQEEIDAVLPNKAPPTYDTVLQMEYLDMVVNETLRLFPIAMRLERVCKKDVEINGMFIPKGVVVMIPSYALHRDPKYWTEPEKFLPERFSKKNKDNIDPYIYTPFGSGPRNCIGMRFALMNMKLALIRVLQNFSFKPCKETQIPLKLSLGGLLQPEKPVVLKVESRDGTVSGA

## COC(=O)[C@H](CCSC)NC(=O)NCc1ccccc1F
Cytochrome P450 2C19; read-out: AC50
  AC50: 0.0158 µM (inconclusive)

## CN(C)/N=C/C=C1\CCC/C(=C\c2ccc(F)c(F)c2)C1=O
[1]
  AC50: 8.22 µM (active)

## Cc1cc(C)c2nc(N3CCCC(C(=O)N4CCN(c5ncccn5)CC4)C3)sc2c1 (stereo unspecified)
[1]
  AC50: 5.98 µM (active)

## CS(=O)(=O)N1CCN(C2C3CC4CC(C3)CC2C4)CC1 (stereo unspecified)
[2]
  IC50: 152 µM (active)

## CCc1ccccc1OC[C@@H](O)CN[C@H]1CCCc2ccccc21
Cytochrome P450 2C19; read-out: AC50
  AC50: 2 µM (inconclusive)

## Cc1nnc(-c2ccc(Oc3ccc(Cl)cc3)c([N+](=O)[O-])c2)o1
[1]
  AC50: < 0.16 µM (active)

## Cc1ccc(C)c(Cc2c(C)nc3c(C(=O)NCc4ccc5c(c4)OCO5)cnn3c2C)c1
[3]
  EC50: 1.61 µM (active)
[4]
  EC50: > 60 µM (not active)
[1]
  AC50: 4.98 µM (active)

## Cc1ccc(NC(=O)c2ccc(NCCCN3CCOCC3)c([N+](=O)[O-])c2)cc1Cl
[5]
  CC50: 12.8 µM (active)

## O=C(/C=C/c1ccccc1)OCCNC1=NS(=O)(=O)c2ccccc21
[5]
  CC50: 36.4 µM (active)

## COc1ccc(CCNC(=O)Cn2cnc3c2c(=O)n(C)c(=O)n3C)cc1OC
Cytochrome P450 2C19
  AC50: inconclusive
Cytochrome P450 1A2
  AC50: 3.16 µM (inconclusive)

## COc1ccc(Oc2ncc3nc(-c4ccccc4)c(=O)n(C4CC4)c3n2)cc1
Cytochrome P450 2C19; read-out: AC50
  AC50: 31.6 µM (inconclusive)

## C=C[C@@H]1c2cc(C)ccc2N(S(=O)(=O)c2ccc(C)cc2)[C@H](c2ccc(OC(C)=O)cc2)C1(C#N)C#N
[1]
  AC50: 0.804 µM (active)

## Cc1cnn(CCC(=O)NN=C(S)Nc2ccc(F)cc2)c1
Cytochrome P450 2C19; read-out: AC50
  AC50: 17.8 µM (inconclusive)
Cytochrome P450 3A4
  AC50: 17.8 µM (inconclusive)

## CCOc1cc(/C=C2\C(=O)N(Cc3ccco3)C(C)=C2C(=O)OC)ccc1O
[2]
  IC50: 69.9 µM (active)

## O/N=C1\CCCc2ccc(Cl)cc21
[5]
  CC50: 19.5 µM (active)

## CCCCCn1cc[n+](C2=C([N-]S(=O)(=O)c3ccc(Br)cc3)C(=O)c3ccccc3C2=O)c1
[6]
  EC50: 4.17 µM (active)
Streptococcus
  EC50: 6.33 µM (active)

## Cc1cccc(NC(=O)CSc2nnnn2C)n1
Cytochrome P450 2C19; read-out: AC50
  AC50: 39.8 µM (inconclusive)

## Cc1cccc(N(C)Cc2nnc(-c3cccc(Br)c3)o2)c1
[5]
  CC50: 33.1 µM (active)

## CCNC(=O)CSc1nnc(C2CC2)n1-c1ccccc1
Cytochrome P450 2C19; read-out: AC50
  AC50: 22.4 µM (inconclusive)
Cytochrome P450 3A4
  AC50: 28.2 µM (inconclusive)

## CCOC(=O)c1ccc2[nH]c3c(c2c1)CCCC3NC=O (stereo unspecified)
[5]
  CC50: 36 µM (active)

## COCCn1c(=O)c(-c2cccc(C#N)c2)nc2cnc(Oc3ccc(OC)cc3)nc21
Cytochrome P450 2C19; read-out: AC50
  AC50: 39.8 µM (inconclusive)
Cytochrome P450 1A2
  AC50: 12.6 µM (inconclusive)

## CCOc1ccc(Cl)cc1CNCCNCCO.Cl
Cytochrome P450 2C19
  AC50: inconclusive

## Cc1ccc(C(=O)Nc2cc(C(C)C)c(O)c(C(C)C)c2)cc1
[5]
  CC50: 32 µM (active)

## CCCCNCC(O)(c1ccc(Cl)cc1)c1ccc(Cl)cc1
[5]
  CC50: 7.11 µM (active)

## COC(=O)c1cccc(Nc2cc(C)nc(-c3ccccc3O)n2)c1
[3]
  EC50: 2.74 µM (active)
[4]
  EC50: 7.5 µM (active)
[1]
  AC50: 1.75 µM (active)

## CCOC(=O)N1CC=C2C(C#N)=C(N)C(C#N)(C#N)[C@H](c3ccccc3OCC)[C@H]2C1
[7]
  EC50: > 120 µM (not active)
[8]
  EC50: > 120 µM (not active)
H4
  EC50: > 120 µM (not active)

## CN(C)C(=O)Oc1cc(OC(=O)N(C)C)cc([C@@H](O)CNC(C)(C)C)c1
Cytochrome P450 2C19
  AC50: inconclusive

## COc1ccc(/C=C2\CCCC3C2=NN(C(=O)c2ccco2)C3c2ccc(OC)c(OC)c2)cc1OC (stereo unspecified)
Cytochrome P450 2C19; read-out: AC50
  AC50: 31.6 µM (inconclusive)

## O=[N+]([O-])c1cc(-c2n(-c3ccccn3)c3ccccc3[n+]2-c2ccccn2)ccc1Cl
[7]
  EC50: 56.9 µM (active)
[8]
  EC50: 14.2 µM (active)
H4
  EC50: > 120 µM (not active)

## C=C1CCO[C@@]2([C@H](O)[C@@](C)(O)CO)NC(=O)[C@]1(O)NC2=O
Cytochrome P450 2C19
  AC50: inconclusive

## Cc1ccc(S(=O)(=O)N[C@H](C(=O)OCC(=O)N2N=C(c3ccc(Cl)cc3)CC2c2ccco2)C(C)C)cc1 (stereo partly specified)
[5]
  CC50: > 50 µM (active)
[9]
  EC50: > 53 µM (inactive)

## C/C(=N\NC(=O)c1ccccc1C)c1ccc(NC(=O)c2cccs2)cc1
Cytochrome P450 2C19; read-out: AC50
  AC50: 31.6 µM (inconclusive)
Cytochrome P450 1A2
  AC50: 22.4 µM (inconclusive)

## CCOc1cc(/C=N/N2CCN(Cc3ccccc3)CC2)ccc1O
[2]
  IC50: 86.7 µM (active)

## CC1CCN(c2nc(-c3cccnc3)nc3scc(-c4ccccc4)c23)CC1
[1]
  AC50: 1.36 µM (active)

## COc1ccc(Cc2nc3ccc(C(=O)NCCc4cccc(C)n4)cc3o2)cc1
[5]
  CC50: 19.7 µM (active)

## CCCn1c(=O)c(C(=O)N/N=C/c2ccc(F)cc2)c(O)c2ccccc21
[6]
  EC50: 1.99 µM (active)
Streptococcus
  EC50: 3.31 µM (active)

## O=C(CN1CCN(c2ncccn2)CC1)N1CCCC1
[2]
  IC50: 176 µM (active)

## COc1ccc(-c2cn(CCc3c[nH]c4ccccc34)nn2)cc1
[1]
  AC50: 2.86 µM (active)

## COc1cc(/C=N/Nc2nc(C)cc(O)n2)ccc1O
[2]
  IC50: 23.9 µM (active)

## Oc1ccc2ccccc2c1Br
[2]
  IC50: 20.3 µM (active)
